The record followed here is patent publication US9572347B2, “Method for inactivating a virus” (THE UNIVERSITY OF TOKYO, priority 2009, dated 2017).

The subject of the test is Qβ phage (NBRC 20012). As to the kind of experiment: phage inactivation ability test on sample-coated glass plate (Example 1 method). It counts as cell-based. To be noted: same copper ion ratio, contact of 30 minutes, FIG. 2.
Regarding “cupric sulfide [CuS, reference compound]”, the phage inactivation effect entry is “almost no inactivation effect”.

As to `[Cu+].[I-]` [CuI, cuprous iodide], the phage inactivation effect result is on record as “high phage inactivation effect”. Consider `[Cl][Cu]` [CuCl, cuprous chloride], for which the phage inactivation effect result is “almost the same phage inactivation ability as that of cuprous oxide”. In the case of cuprous sulfide [Cu2S], the phage inactivation effect result is reported as “high phage inactivation effect”.
